Data from the NIST ThermoML archive (doi:10.1021/acs.jced.6b00327).
Numbers after ± are expanded uncertainties.

Assay: xn = mol fraction of the nth substance listed
Details: Liquid, Buoyancy - hydrostatic balance with magnetic suspension - one sinker

F/C=C/C(F)(F)F [trans-1,3,3,3-tetrafluoropropene] + CCC
Details	mass density [kg/m3]
253.14 K, x1 = 0.4965	913.53 ± 4.4
253.3 K, x1 = 0.1746	680.21 ± 4.3
253.44 K, x1 = 0.8803	1197.23 ± 4.3
253.45 K, x1 = 0.7006	1067.62 ± 4.5
256.11 K, x1 = 0.1746	676.35 ± 4.3
258.14 K, x1 = 0.7006	1056.03 ± 4.4
258.17 K, x1 = 0.4965	903.57 ± 4.4
258.2 K, x1 = 0.8803	1186.23 ± 4.4
261.14 K, x1 = 0.1746	670.01 ± 4.2
263.15 K, x1 = 0.7006	1043.42 ± 4.4
263.16 K, x1 = 0.4965	892.67 ± 4.3
263.17 K, x1 = 0.8803	1175.37 ± 4.4
265.18 K, x1 = 0.1746	662.22 ± 4.2
268.17 K, x1 = 0.7006	1030.6 ± 4.4
268.19 K, x1 = 0.4965	884.02 ± 4.2
268.2 K, x1 = 0.8803	1162.41 ± 4.4
269.18 K, x1 = 0.1746	655.74 ± 4.2
273.18 K, x1 = 0.7006	1017.6 ± 4.3
273.18 K, x1 = 0.8803	1149.12 ± 4.4
273.2 K, x1 = 0.1746	648.23 ± 4.2
273.2 K, x1 = 0.4965	873.27 ± 4.2
278.19 K, x1 = 0.8803	1135.29 ± 4.4
278.2 K, x1 = 0.1746	640.01 ± 4.2
278.2 K, x1 = 0.7006	1004.24 ± 4.3
278.24 K, x1 = 0.4965	862 ± 4.2
283.18 K, x1 = 0.1746	630.77 ± 4.1
283.19 K, x1 = 0.4965	851.76 ± 4.1
283.19 K, x1 = 0.8803	1121.17 ± 4.3
283.2 K, x1 = 0.7006	991.21 ± 4.2
288.21 K, x1 = 0.8803	1106.57 ± 4.3
288.22 K, x1 = 0.7006	977.85 ± 4.1
288.25 K, x1 = 0.4965	842.07 ± 4
293.28 K, x1 = 0.4965	831.58 ± 3.9
293.28 K, x1 = 0.7006	963.78 ± 4.1
293.28 K, x1 = 0.8803	1091.31 ± 4.3
